Tests used:
[1] = tested on: full-thickness skin wound; assay: Mouse full-thickness skin wound model; type: in vivo; conditions: 1 mg/mL, 0.04 mL per wound site every 24 hr until day 12, negative control 854.2±119.2
Procedure: A full-thickness skin wound in which the skin on the back of a mouse was partially removed was prepared as described below, and the wound therapy promoting effect of the compound was evaluated by comparing the reduction rate of the wound area.
Compound K-1:J-1 was dissolved in a solvent (10% Pluronic F-68, 2% Propylene Glycol, 20 mM Tris buffer (pH 8.5)) at a concentration of 1 mg/mL, and administered by adding dropwise to the wound site (0.04 mL per one wound site). To the negative control, the solvent alone was administered by dropwise addition.
As the mouse, male BKS.Cg-Dock7m+/+Leprdb/J, 7-week-old, was purchased from CHARLES RIVER LABORATORIES JAPAN, INC. After removing the hair on the back, an 8 mm full-thickness skin wound was prepared using biopsy trepan (Kai Corporation) and protected with a coating material (Tegaderm transparent dressing, 3M). The wound preparation date was set as day 1, and 1 mg/mL compound K-1:J-1 was added dropwise at a dose of 0.04 mL per wound site every 24 hr until day 12. The area of the wound site was measured on days 1, 3, 6, 9, 13. The wound area on day 1 was set to 100%, and the total measured area was calculated as a percentage (%) with respect to the wound preparation date. Conducted in 6 cases in each group.

LATS1 = target: T1, LATS1 (Homo sapiens, UniProt O95835); assay: Kinase Assay method (Fluorospark Kinase/ADP Multi-Assay Kit); type: biochemical
T1 construct: purchased Carna Biosciences
T1 sequence (O95835 589-1130 limits assumed): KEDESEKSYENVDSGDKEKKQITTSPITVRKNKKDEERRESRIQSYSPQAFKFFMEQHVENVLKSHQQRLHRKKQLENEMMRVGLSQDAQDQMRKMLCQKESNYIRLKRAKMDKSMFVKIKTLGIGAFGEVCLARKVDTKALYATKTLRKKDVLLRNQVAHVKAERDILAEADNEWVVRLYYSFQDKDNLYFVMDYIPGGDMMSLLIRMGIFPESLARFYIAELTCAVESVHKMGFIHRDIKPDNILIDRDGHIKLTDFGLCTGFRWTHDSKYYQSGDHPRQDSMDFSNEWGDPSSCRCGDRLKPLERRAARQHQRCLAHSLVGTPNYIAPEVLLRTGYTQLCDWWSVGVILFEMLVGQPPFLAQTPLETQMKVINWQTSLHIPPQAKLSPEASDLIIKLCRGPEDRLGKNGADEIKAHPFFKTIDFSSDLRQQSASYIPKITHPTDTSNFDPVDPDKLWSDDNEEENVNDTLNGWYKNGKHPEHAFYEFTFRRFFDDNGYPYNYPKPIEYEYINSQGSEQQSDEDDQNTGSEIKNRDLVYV
Procedure: (§1) For compound k-1:B-1 (racemate), GA-002A, GA-002B, GA-005A and GA-005B, inhibitory activity evaluation (calculation of IC50) was performed on LATS1 and LATS2 (manufactured by Carna Biosciences). The activity was measured using the Kinase Assay method described below. The compounds were added such that the test concentration of k-1:B-1 (racemate), GA-002A, GA-002B, GA-005A and GA-005B was in 8 steps (10 μM, 1 μM, 100 nM, […], 10 nM, 3 nM, 1 nM, 0.3 nM) from the final concentration of 10 μM to 0.3 nM.
(§2) As the analysis method of the data, the mean signal of the control well containing reaction components other than the evaluation compound was set to 0% inhibition, the mean signal without enzyme addition was set to 100% inhibition, and the inhibition rate was calculated from the mean signal of 2 wells of each test substance test. IC50 value was calculated using EXSUS (version 7.1.6, manufactured by CAC EXICARE Corporation).
(§3) 2 μL of a compound of the present invention solution at 2.5-fold concentration, 1 μL of substrate at 5-fold concentration (SGKtide: NH2—CKKRNRRLSVA-COOH, manufactured by SignalChem), ATP (manufactured by Sigma-Aldrich), MgCl2 (manufactured by FUJIFILM Wako Pure Chemical Corporation) solution (final concentration 10 μM, 400 μM or 5 mM), and 2 μL of kinase solution at 2.5-fold concentration (final concentration of LATS1 or LATS2 5 μg/mL), each prepared with assay buffer (20 mM HEPES, 0.01% Triton X-100, 2 mM DTT, pH 7.5), were mixed in the wells of a polypropylene 384-well plate (manufactured by Greiner Bio-One, #784900) and reacted at room temperature for 5 hr. Successively, 5 μL detection solution (Fluorospark (registered trade mark)Kinase/ADP Multi-Assay Kit; manufactured by FUJIFILM Wako Pure Chemical Corporation) was added, and the mixture was reacted at room temperature 30 min. Successively, 5 μL of a reaction quenching liquid (Fluorospark (registered trade mark) Kinase/ADP Multi-Assay Kit; manufactured by FUJIFILM Wako Pure Chemical Corporation) was added to discontinue the reaction. Thereafter, the ADP concentration of the reaction solution was quantified by EnSpire (manufactured by PerkinElmer) to detect the kinase reaction.

LATS2 = target: T2, LATS2 (Homo sapiens, UniProt Q9NRM7); assay: as above; type: biochemical
T2 construct: purchased Carna Biosciences
T2 sequence (Q9NRM7 553-1088 limits assumed): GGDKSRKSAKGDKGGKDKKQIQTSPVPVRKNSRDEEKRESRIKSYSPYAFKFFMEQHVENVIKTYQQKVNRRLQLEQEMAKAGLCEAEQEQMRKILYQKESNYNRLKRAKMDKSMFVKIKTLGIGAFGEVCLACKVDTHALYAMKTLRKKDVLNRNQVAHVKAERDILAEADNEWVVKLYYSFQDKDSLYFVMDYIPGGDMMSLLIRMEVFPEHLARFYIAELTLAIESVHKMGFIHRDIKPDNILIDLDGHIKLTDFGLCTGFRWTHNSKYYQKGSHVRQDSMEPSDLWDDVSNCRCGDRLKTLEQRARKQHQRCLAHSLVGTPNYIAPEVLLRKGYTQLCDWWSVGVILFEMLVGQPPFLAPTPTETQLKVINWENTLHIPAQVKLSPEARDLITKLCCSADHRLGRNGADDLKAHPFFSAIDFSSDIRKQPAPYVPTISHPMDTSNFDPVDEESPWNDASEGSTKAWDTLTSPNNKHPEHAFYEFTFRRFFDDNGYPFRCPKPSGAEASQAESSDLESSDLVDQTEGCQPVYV
Procedure: as §1, §2, §3

[2] = Kinase Assay method, 8 steps 10 μM to 0.3 nM

inhibition at 0.1 µM (LATS1; 100 nM, read-out: LARS1 inhibitory rate (%)) [%] | inhibition at 1 µM (LATS1; 1000 nM, read-out: LARS1 inhibitory rate (%)) [%] | IC50 (LATS1; [2]) [nM] | inhibition at 0.1 µM (LATS2; 100 nM, read-out: LARS2 inhibitory rate (%)) [%] | inhibition at 1 µM (LATS2; 1000 nM, read-out: LARS2 inhibitory rate (%)) [%] | IC50 (LATS2; [2]) [nM] | Compound | area under the wound area ratio (Area Under the Curve (AUC)) [1] [%×day]
 |  |  |  |  |  | CC/C(=N\NC(=O)NCc1cccc(O)c1)c1ccc(O)c(C)c1O [k-1:J-1] | 659.6±163.7
94 | 102 | 8.88 | 75 | 96 | 30.8 | CC/C(=N\NC(=O)C(C)Nc1ccccc1)c1ccc(O)c(C)c1O (stereo not shown) [k-1:B-1] | 

From patent US20210253518A1, “KINASE INHIBITOR” (NISSAN CHEMICAL CORPORATION, priority 2018, published 2021)
